Source: US11992545B2, “Aqueous cosmetic compositions containing pelargonic acid esters” (Novamont S.p.A., priority 2015, dated 2024)

Experiments:
[1] = Pigments dispersion: wet point and flow point; type: physicochemical; conditions: for Fp (flow point), amount of ester oil / Wp (wet point), amount of ester oil: grams per 100 g of pigment
Excerpt: Black Iron Oxide particles (C177499, commercially available as YPC335200 from Yipin) were dispersed in each of the ester oils of the present invention and in ester oil commonly used as cosmetic ingredients. Each sample of powder particles was wetted by the dropwise addition of one ester oil and then vigorously blended using a spatula until the wet point and the flow point were reached.
The wet point is defined as the minimum volume of dispersant solution to produce a soft coherent mass; the further minimum addition of dispersant solution to produce flow or falling off of the homogeneous mass from the vertical blade of a horizontally held spatula determines the flow point.
The amounts of dispersant solution (i.e. ester oil) needed to reach the wet point (Wp) and the flow point (Fp) were recorded and reported in the table below, expressed in grams per 100 g of pigment.

[2] = UV filters dispersion (dispersibility of solid UV filter in ester oils); type: physicochemical; design: key to Filters dispersion t0, 1% / Filters dispersion t0, 10% / Filters dispersion t24, 1% / Filters dispersion t24, 10%: D=homogeneous dispersion; S=sediment deposit; conditions: for Filters dispersion t0, 1%: 1% TiO2, 0 hours at 25° C.; for Filters dispersion t24, 1%: 1% TiO2, 24 hours at 25° C.; for Filters dispersion t0, 10%: 10% TiO2, 0 hours at 25° C.; for Filters dispersion t24, 10%: 10% TiO2, 24 hours at 25° C.; for dispersion of Titania compared with reference solvents: in words
Method: The dispersibility of a solid UV filter in different ester oils was tested using Titania (TiO2, commercially available as Titanio Biossido Anatasio from A.C.E.F.). Various ratios of filter/ester (1% and 10% TiO2) were prepared under stirring at 70° C. for 30 minutes. The dispersions were then observed after a storage period of 0 hours (t0) and 24 hours (t24) at ambient temperature (25° C.) to check for the formation of any sediment deposit. Results for each ester are shown in the table below (D=homogeneous dispersion; S=sediment deposit).

In the case of CCCCCCCCC(=O)OCC(COC(=O)CCCCCCCC)OC(=O)CCCCCCCC [Glycerol tripelargonate], the “less solvent required in the final composition” value [1] was “about 30%”, the “Fp (flow point), amount of ester oil” value [1] was 100.00 g and the “Wp (wet point), amount of ester oil” value [1] was 60.00 g. For the same compound, the “dispersion properties compared with commonly used cosmetic ingredients” value ([1]; in words) was “even better”, the “Filters dispersion t0, 1%” value [2] was “D” and the “Filters dispersion t24, 1%” value [2] was “D”. The “Filters dispersion t0, 10%” value [2] was “D”, the “Filters dispersion t24, 10%” value [2] was “S/D” and the “dispersion of Titania compared with reference solvents” value [2] was “even better”.
For CC(C)CCCCCCOC(=O)CCCCCC(C)C [Isononyl Isononanoate, reference compound], the “Fp (flow point), amount of ester oil” value [1] was 145.00 g, the “Wp (wet point), amount of ester oil” value [1] was 50.00 g and the “Filters dispersion t0, 1%” value [2] was “D”. For the same compound, the “Filters dispersion t24, 1%” value [2] was “S”, the “Filters dispersion t0, 10%” value [2] was “D” and the “Filters dispersion t24, 10%” value [2] was “S”.
In the case of CCCCCCCCC(=O)OCC(C)(C)COC(=O)CCCCCCCC [Neopentyl glycol dipelargonate], the “Fp (flow point), amount of ester oil” value [1] was 166.00 g, the “Wp (wet point), amount of ester oil” value [1] was 61.00 g and the “Filters dispersion t0, 1%” value [2] was “D”. The “Filters dispersion t24, 1%” value [2] was “S/D”, the “Filters dispersion t0, 10%” value [2] was “D” and the “Filters dispersion t24, 10%” value [2] was “S/D”.
With CCCCCCCCC(=O)OCC(COC(=O)CCCCCCCC)(COC(=O)CCCCCCCC)COC(=O)CCCCCCCC [Pentaerythritol tetrapelargonate] the “Fp (flow point), amount of ester oil” value [1] was 132.00 g, the “Wp (wet point), amount of ester oil” value [1] was 62.00 g and the “Filters dispersion t0, 1%” value [2] was “D”. For the same compound, the “Filters dispersion t24, 1%” value [2] was “D”, the “Filters dispersion t0, 10%” value [2] was “D” and the “Filters dispersion t24, 10%” value [2] was “D”. For the same compound, the “dispersion of Titania compared with reference solvents” value [2] was “even better”.
